Laboratory results reported in patent publication US10683273B2, “Compounds as DNA probes, methods and applications thereof” (JAWAHARLAL NEHRU CENTRE FOR ADVANCED SCIENTIFIC RESEARCH, priority 2015, dated 2020).

Experiments:
d(ATAT)5 [1] = experiment: Switch-on NIR-fluorescence enhancement with DNA; assay type: binding
Method: All the chemicals, reagents, single-stranded oligos (dA20, dT20, dG20, dC20), self-complementary oligos {d(ATAT)5, (D1)mix, Drew-AT, Calf-Thymus DNA (CT-DNA), (DM1, DM2, DM3, DM4, DM5, DM6 and DM7)}, RNA, were purchased from Sigma-Aldrich. ^1H and ^13C NMR spectra were recorded on a Bruker AV-400 MHz spectrometer with chemical shifts reported as parts per million (ppm) (in DMSO-d6, tetramethylsilane as an internal standard) at 20° C. UV-vis absorption and emission spectra were measured in quartz cuvettes of 1 cm path length. High resolution mass spectra (HRMS) were obtained on Agilent Technologies 6538 UHD Accurate-Mass Q-TOF LC/MS spectrometer. All biophysical studies (UV-vis, fluorescence and Cirular dichroism) are carried out at the concentration 0-5 μM of probe, volume=500 μL, temperature=25° C. and time of incubation=2 minutes. […]
The UV-vis absorption and emission spectra are recorded on Agilent Technologies Cary series UV-vis-NIR absorbance and Cary eclipse fluorescence spectrophotometers, respectively. […] Absorption is monitored at 260 nm with regular 5° C. intervals. Melting temperatures (Tm) of DNA samples are calculated from the first derivatives of the absorption vs. temperature curves (thermal denaturation or melting curves) obtained by monitoring at 260 nm. […]

(D1)mix = experiment: Fluorescence quantum yield in presence of DNA; assay type: binding
Method: (§1) Cresyl violet perchlorate in ethanol (ϕ=0.54) is used as the standard for the fluorescence quantum yield calculation using the absorption of the test sample. The emission spectral area is obtained in the 550-800 nm regions. Dilute solutions (10^−6 M) are used to minimize reabsorption effects of the dyes. Quantum yields are determined using the following equation, ϕs=ϕr(Fs/Fr)×(Ar/As)×(ns^2/nr^2)
(§2) Where, ϕr and ϕs are the quantum yield of reference and sample respectively, Fr and Fs are the integrated intensities (areas) of standard and sample spectra, nr and ns are the refractive indices of the reference and sample solution, Ar and As are the absorbance intensities of reference and sample respectively.

Drew-AT = experiment: Fluorescence quantum yield in presence of DNA; assay type: binding
Method: as §1, §2

d(ATAT)5 [2] = experiment: Fluorescence quantum yield in presence of DNA; assay type: binding; settings: in presence of D(ATAT)5
Method: as §1, §2

MCF-7 cells = experiment: Fluorescence study in live cells; assay type: cell-based; settings: live MCF-7 cells, 0.5 and 1 μM, 60 min
Method: MCF-7 cells are propagated on 20 mm cover slips in a 6-well plate in DMEM medium supplemented with 10% fetal bovine serum at about 37° C. in a humidified atmosphere containing 5% CO2 till 80% confluency is achieved. Cells are incubated for about 60 min with probe QCy-DT (resuspended in Mili-Q water) at various concentrations (0.5 μM and 1 μM) in a humidified CO2 incubator at about 37° C. Milli-Q water is used as a vehicle control. Following the treatment, fluorescence microscopy is performed using Carl Zeiss AXIO Imager Z1 and the software used for image capturing is AxioVision Rel. 4.8.
In order to check its permeability, cellular uptake studies are carried out in live and fixed conditions of MCF-7 and HeLa cells, respectively. First, MCF-7 cells are incubated with probe QCy-DT (0.5 and 1 μM) without fixing, and live cell imaging is conducted using Carl Zeiss fluorescence microscope as described above. […] Next, HeLa cells are fixed and incubated with QCy-DT (0.5 and 1 μM) along with Hoechst as the control nuclear staining dye. […] Therefore, staining results obtained with live and fixed cells confirmed high cell permeability, efficiency (low staining concentration of 1 μM), and preferential targeting of cell nuclear DNA.

[3] = system: DNA containing 5′-GAATTC-3′ core; experiment: Fluorescence enhancement, local variations 5′-X(AATT)Y-3′; assay type: binding
Method: (§3) All the chemicals, reagents, single-stranded oligos (dA20, dT20, dG20, dC20), self-complementary oligos {d(ATAT)5, (D1)mix, Drew-AT, Calf-Thymus DNA (CT-DNA), (DM1, DM2, DM3, DM4, DM5, DM6 and DM7)}, RNA, were purchased from Sigma-Aldrich. ^1H and ^13C NMR spectra were recorded on a Bruker AV-400 MHz spectrometer with chemical shifts reported as parts per million (ppm) (in DMSO-d6, tetramethylsilane as an internal standard) at 20° C. UV-vis absorption and emission spectra were measured in quartz cuvettes of 1 cm path length. High resolution mass spectra (HRMS) were obtained on Agilent Technologies 6538 UHD Accurate-Mass Q-TOF LC/MS spectrometer. All biophysical studies (UV-vis, fluorescence and Cirular dichroism) are carried out at the concentration 0-5 μM of probe, volume=500 μL, temperature=25° C. and time of incubation=2 minutes. HeLa cells and MCF7 cells used in the biological studies are obtained from “Molecular reproduction, development and genetics lab, Indian institute of science, Bangalore, India”
(§4) Stock solutions of QCy-DT are prepared in double-distilled (dd) water in the order of 10^−3 M and stored at about −10° C. […]
(§5) The UV-vis absorption and emission spectra are recorded on Agilent Technologies Cary series UV-vis-NIR absorbance and Cary eclipse fluorescence spectrophotometers, respectively. […] Absorption is monitored at 260 nm with regular 5° C. intervals. Melting temperatures (Tm) of DNA samples are calculated from the first derivatives of the absorption vs. temperature curves (thermal denaturation or melting curves) obtained by monitoring at 260 nm.
(§6) To understand finer details of the interactions of QCy-DT with local variations around 5′-AATT-3′ sequence in the minor groove of DNA duplex, fluorescence studies are performed in the presence of DNA containing core hexanucleotide sequences such as 5′-X(AATT)Y-3′ (where X=A/T/G/C and Y is complementary base of X) (FIG. 5a). […] Remarkably, enormous fluorescence enhancement is observed in the presence of DNA with 5′-AAATTT-3′ core, which is ˜4-folds higher than the DNA with 5′-AATT-3′ core sequence alone. […]

[4] = system: DNA containing 5′-CAATTG-3′ core; experiment: as above; assay type: binding
Method: as §3, §4, §5, §6

5′-TAATTA-3′ = experiment: as above; assay type: binding; settings: folds lesser than 5′-AATT-3′ sequence
Method: as §3, §4, §5, §6

SMILES: C[n+]1c(/C=C/c2ccc(O)c(/C=C/c3sc4ccccc4[n+]3C)c2)sc2ccccc21 [QCy-DT, quinone cyanine-dithiazole]
- fluorescence enhancement (d(ATAT)5 [1]): ~54 fold
- Quantum Yield (ΦF) ((D1)mix): 0.08
- Quantum Yield (ΦF) (Drew-AT): ~0.25
- Quantum Yield (ΦF) (d(ATAT)5 [2]): 0.08
- cellular uptake / nuclear staining (MCF-7 cells): selective staining of the cell nucleus
- fluorescence enhancement [3]: very weak fluorescence enhancement
- fluorescence enhancement [4]: very weak fluorescence enhancement
- fluorescence enhancement with T at X in 5′-X(AATT)Y-3′, lesser than 5′-AATT-3′ (5′-TAATTA-3′): ~1.5 fold
